In patent US7405228B2, “Antibacterial cyano-(substituted)-methylenepiperidinophenyl oxazolidinones targeting multiple ribonucleoprotein sites” (Wockhardt Limited, priority 2002, dated 2008):
Converted amounts (≈) assume the structure as drawn.

Legend:
[1] = system: Enterococcus faecalis 416 strain; assay: Propensity to resistance development (resistant colonies per plate); assay type: cell-based; details: E. faecalis 416 at 10^8 CFU, compound concentration 5 mcg/ml, 48 hours at 35° C.
Method: Enterococcus faecalis 416 strain at 10^8 CFU density level was spirally plated on Mueller Hinton agar containing 5 mcg/ml each of linezolid and representative compound of the invention. Plates were incubated at 35° C. for 48 hours and number of resistant colonies developed in presence of respective compounds were counted by automated counter.

[2] = system: linezolid-resistant S. pneumoniae; details: Adis R&D Insight report Document 013296; cited from earlier work
[3] = system: MRSA 032; assay: MIC determination, linezolid sensitive MRSA 032 (MRSA-32); assay type: cell-based; details: Staphylococcus aureus, read-out: MIC MRSA 32
Method: (§1) Infecting doses of organisms given by intraperitoneal route in 5% hog gastric mucin were 10^3-10^4 CFU (colony forming units)/animal for SPN 6303 and 10^8 CFU/animal for MRSA-32. In case of MRSA-32, Linezolid was administered by oral route, 1 and 4 h post infection, BID (twice a day) for 1 day and for SPN 6303 BID for 2 days. […] MICs of Methicillin Resistant Staphylococcus aureus-32 Linezolid resistant (MRSA-32 LNZR), S. pneumoniae 744 Linezolid resistant (SPN 744 LNZR) and parent Linezolid sensitive strains MRSA-32 and SPN 6303 were determined for Linezolid by NCCLS agar dilution method.
(§2) Cultures were further diluted 1:10 in Mueller Hinton broth. Using Denley's mutipoint inoculator, 10^4 cells were deposited on Mueller Hinton agar (Difco) containing range of 2 fold dilutions of test compounds. […] MIC is defined as minimum drug concentration that inhibits test organisms. For determining MIC of test compounds against Streptococcus pneumoniae, Mueller Hinton agar containing 5% sheep blood was employed.

[4] = system: S. aureus MRSA-32 LNZR; assay: MIC determination, linezolid resistant S. aureus MRSA-32 LNZR; assay type: cell-based; details: Staphylococcus aureus, 24 h, read-out: MIC MRSA 32 LNZR
Method: as §1, §2

[5] = system: SPN 744 LNZR; assay: MIC determination, linezolid resistant SPN 744 LNZR; assay type: cell-based; details: Streptococcus pneumoniae, read-out: MIC SPN744 LNZR
Method: as §1, §2

[6] = system: E. faecium 367 LNZR; assay: MIC determination, linezolid resistant E. faecium 367 LNZR; assay type: cell-based; details: Enterococcus faecium, read-out: MIC E. faecium 367 LNZR
Method: E. faecium ATCC 19434 strain at a cell density of 10^6/ml was inoculated in Mueller Hinton broth medium containing Linezolid at a concentration of 5 and 7.5 mcg/ml. The stationary culture was incubated at 37° C. and inspected at every 24 hours to assess the formation of turbidity due to the onset of bacterial growth. […] A 50 microliter sample of turbid flask was plated on Mueller Hinton agar medium incorporated with linezolid at 7.5 mcg/ml. The agar plates were incubated for 48 hours at 37° C. for the formation of discrete colonies of linezolid-resistant strain of E. faecium (E. faecium 367 LNZR). MICs of resistant mutant E. faecium 367 LNZR and parent strain E. faecium ATCC 19434 were determined for linezolid by NCCLS method.
as §2

[7] = system: SPN 49619; assay: MIC determination, linezolid sensitive SPN 49619; assay type: cell-based; details: Streptococcus pneumoniae; linezolid sensitive strain, Table 3
[8] = system: Enterococcus faecalis 416 strain; assay: Killing effect study (bactericidal vs bacteriostatic activity); assay type: cell-based; details: E. faecalis 416, 5 mcg/ml compound, initial count 10^6 CFU/ml, Table 4
Method: The initial inoculum was adjusted to 10^6 CFU (colony forming units) per ml. The flasks were kept on shaker in close cabinet at 35° C. Aliquots were drawn at 112 hours and cell count was determined to assess the extent of loss in viability.

[9] = system: Enterococcus faecalis 416; assay: Mutant Prevention Concentration (MPC) determination; assay type: cell-based; set-up: unit not given here; details: E. faecalis 416, 10^9 CFU/plate, TSA, 48 hours at 35° C.
Method: Clinical isolate Enterococcus faecalis 416 was spirally plated on Tryptic Soya agar (TSA) plate containing various 2 fold dilutions each of a representative compound of the invention and Linezolid so as to give 10^9 CFU/plate. After incubation at 35° C. for 48 hours, the CFU on each plate was determined. MPC is defined as minimum concentration of drug that prevents mutant colonies on respective antibiotic containing plate.

Structure (SMILES) | No. of colonies/plate [1] | activity against linezolid-resistant S. pneumoniae [2] | MIC [3] | MIC [4] | MIC [5] | MIC [6] | MIC [7] | Final Count (112 h) [8] | MPC [9] | melting point
CC(=O)NC[C@H]1CN(c2ccc(N3CCC(=CC#N)C(F)C3)c(F)c2)C(=O)O1 (mixture of isomers) [Example 56, (S)-N-{3-[4-(4-cyanomethylidene-3-fluoropiperidin-1-yl)-3-fluorophenyl]-2-oxo-oxazolidin-5-ylmethyl}-acetamide] | 0 | – | – | – | – | – | – | – | – | –
O=C([C@@H](O)CO)N1CC=C(c2c(F)cc(N3C[C@H](COc4ccon4)OC3=O)cc2F)CC1 [AZD 2563] | – | ineffective | – | – | – | – | – | – | – | –
CC(=O)NC[C@H]1CN(c2ccc(N3CCC(=CC#N)CC3)cc2)C(=O)O1 [Example 3, (S)-N-{3-[4-(4-cyanomethylidene-piperidin-1-yl)-phenyl]-2-oxo-oxazolidin-5-ylmethyl}-acetamide] | 0 | – | 1.56 µg/mL (≈ 4.4 µM) | 25 µg/mL (≈ 70.5 µM) | 12.5 µg/mL (≈ 35.3 µM) | 25 µg/mL (≈ 70.5 µM) | 0.8 µg/mL (≈ 2.26 µM) | 10^6 CFU/ml | 12.5 | –
CC(=O)NC[C@H]1CN(c2ccc(N3CCC(=CC#N)CC3)c(F)c2)C(=O)O1 [Example 9, (S)-N-{3-[4-(4-cyanomethylidene-piperidin-1-yl)-3-fluorophenyl]-2-oxo-oxazolidin-5-ylmethyl}-acetamide] | 0 | – | – | – | – | – | – | 10^3 CFU/ml | 6.25 | –
N#CC=C1CCN(c2ccc(N3C[C@H](CNC(=O)CCl)OC3=O)cc2F)CC1 [Example 31, (S)-N-{3-[4-(4-cyanomethylidene-piperidin-1-yl)-3-fluorophenyl]-2-oxo-oxazolidin-5-ylmethyl}-chloroacetamide] | 0 | – | 0.8 µg/mL (≈ 1.97 µM) | 12.5 µg/mL (≈ 30.7 µM) | 12.5 µg/mL (≈ 30.7 µM) | 6.25 µg/mL (≈ 15.4 µM) | 0.8 µg/mL (≈ 1.97 µM) | – | – | –
N#CC=C1CCN(c2ccc(N3C[C@H](CNC(=O)C(Cl)Cl)OC3=O)cc2F)CC1 [Example 32, (S)-N-{3-[4-(4-cyanomethylidene-piperidin-1-yl)-3-fluorophenyl]-2-oxo-oxazolidin-5-ylmethyl}-dichloroacetamide] | 0 | – | 0.8 µg/mL (≈ 1.81 µM) | 12.5 µg/mL (≈ 28.3 µM) | 6.25 µg/mL (≈ 14.2 µM) | 6.25 µg/mL (≈ 14.2 µM) | 0.8 µg/mL (≈ 1.81 µM) | – | 6.25 | –
COC(=S)NC[C@H]1CN(c2ccc(N3CCC(=CC#N)CC3)c(F)c2)C(=O)O1 [Example 46, (S)-N-{3-[4-(4-cyanomethylidene-piperidin-1-yl)-3-fluorophenyl]-2-oxo-oxazolidin-5-ylmethyl}-methylthiocarbamate] | 0 | – | 0.2 µg/mL (≈ 0.494 µM) | 6.25 µg/mL (≈ 15.5 µM) | 6.25 µg/mL (≈ 15.5 µM) | 1.56 µg/mL (≈ 3.86 µM) | 0.2 µg/mL (≈ 0.494 µM) | <10^2 CFU/ml | 1.56 | –
N#CC=C1CCN(c2ccc(N3C[C@H](CNC(=S)CO)OC3=O)cc2F)CC1 [Example 47, (S)-N-{3-[4-(4-cyanomethylidene-piperidin-1-yl)-3-fluorophenyl]-2-oxo-oxazolidin-5-ylmethyl}-2-hydroxythioacetamide] | 0 | – | 0.8 µg/mL (≈ 1.98 µM) | – | – | – | 0.4 µg/mL (≈ 0.989 µM) | – | – | –
N#CC=C1CCN(c2ccc(N3C[C@H](CNC(N)=S)OC3=O)cc2F)CC1 [Example 51, (S)-N-{3-[4-(4-cyanomethylidene-piperidin-1-yl)-3-fluorophenyl]-2-oxo-oxazolidin-5-ylmethyl}-thiocarbamide] | 0 | – | 0.4 µg/mL (≈ 1.03 µM) | 3.12 µg/mL (≈ 8.01 µM) | 3.12 µg/mL (≈ 8.01 µM) | 1.56 µg/mL (≈ 4.01 µM) | 0.2 µg/mL (≈ 0.514 µM) | <10^2 CFU/ml | 1.56 | –
CC(=O)NC[C@H]1CN(c2ccc(N3CCC(=C(C)C#N)CC3)c(F)c2)C(=O)O1 [Example 74, (S)-N-{3-[4-(4-(1-cyanoethylidene)-piperidin-1-yl)-3-fluorophenyl]-2-oxo-oxazolidin-5-ylmethyl}-acetamide] | 0 | – | – | 25 µg/mL (≈ 64.7 µM) | 6.25 µg/mL (≈ 16.2 µM) | 6.25 µg/mL (≈ 16.2 µM) | – | – | – | –
CCC(C#N)=C1CCN(c2ccc(N3C[C@H](CNC(=O)C(Cl)Cl)OC3=O)cc2F)CC1 [Example 90, (S)-N-{3-[4-(4-(1-cyanopropylidene)-piperidin-1-yl)-3-fluorophenyl]-2-oxo-oxazolidin-5-ylmethyl}-dichloroacetamide] | 0 | – | 0.8 µg/mL (≈ 1.7 µM) | 12.5 µg/mL (≈ 26.6 µM) | 6.25 µg/mL (≈ 13.3 µM) | 3.12 µg/mL (≈ 6.65 µM) | 0.4 µg/mL (≈ 0.852 µM) | – | – | –
CCC(C#N)=C1CCN(c2ccc(N3C[C@H](CNC(C)=S)OC3=O)cc2F)CC1 [Example 93, (S)-N-{3-[4-(4-(1-cyanopropylidene)-piperidin-1-yl)-3-fluorophenyl]-2-oxo-oxazolidin-5-ylmethyl}-thioacetamide] | – | – | 0.4 µg/mL (≈ 0.96 µM) | 6.25 µg/mL (≈ 15 µM) | 3.12 µg/mL (≈ 7.49 µM) | 1.56 µg/mL (≈ 3.75 µM) | 0.2 µg/mL (≈ 0.48 µM) | – | – | –
C#CCC(C#N)=C1CCN(c2ccc(N3C[C@H](CNC(C)=O)OC3=O)cc2F)CC1 [Example 96, (S)-N-{3-[4-(4-(1-cyano-3-yne-butylidene)-piperidin-1-yl)-3-fluorophenyl]-2-oxo-oxazolidin-5-ylmethyl}-acetamide] | 0 | – | 0.8 µg/mL (≈ 1.95 µM) | 12.5 µg/mL (≈ 30.5 µM) | 6.25 µg/mL (≈ 15.2 µM) | 3.12 µg/mL (≈ 7.6 µM) | 0.8 µg/mL (≈ 1.95 µM) | <10^2 CFU/ml | 6.25 | –
CSC(C#N)=C1CCN(c2ccc(N3C[C@H](CNC(C)=O)OC3=O)cc2F)CC1 [Example 115, (S)-N-{3-[4-(4-(1-cyano-1-methylmercapto-methylidene)-piperidin-1-yl)-3-fluorophenyl]-2-oxo-oxazolidin-5-ylmethyl}-acetamide] | – | – | 0.8 µg/mL (≈ 1.91 µM) | 12.5 µg/mL (≈ 29.9 µM) | 6.25 µg/mL (≈ 14.9 µM) | 3.12 µg/mL (≈ 7.46 µM) | 0.8 µg/mL (≈ 1.91 µM) | – | – | –
CC(=O)NC[C@H]1CN(c2ccc(N3CCC(=C(Br)C#N)CC3)c(F)c2)C(=O)O1 [Example 117, (S)-N-{3-[4-(4-(1-cyano-1-bromo-methylidene)-piperidin-1-yl)-3-fluorophenyl]-2-oxo-oxazolidin-5-ylmethyl}-acetamide] | – | – | 0.8 µg/mL (≈ 1.77 µM) | 12.5 µg/mL (≈ 27.7 µM) | 6.25 µg/mL (≈ 13.8 µM) | 3.12 µg/mL (≈ 6.91 µM) | 0.4 µg/mL (≈ 0.886 µM) | – | – | –
CC(=O)NC[C@H]1CN(c2ccc(N3CC=C(CC#N)CC3)c(F)c2)C(=O)O1 [Example 159, (S)-N-{3-[4-(4-cyanomethyl-3,4-dehydropiperidin-1-yl)-3-fluorophenyl]-2-oxo-oxazolidin-5-ylmethyl}-acetamide] | 1.5 × 10^1 | – | – | – | – | – | – | – | – | 132 °C
CC(=S)NC[C@H]1CN(c2ccc(N3CC=C(CC#N)CC3)c(F)c2)C(=O)O1 [Example 160, (S)-N-{3-[4-(4-cyanomethyl-3,4-dehydropiperidin-1-yl)-3-fluorophenyl]-2-oxo-oxazolidin-5-ylmethyl}-thioacetamide] | 0 | – | 0.4 µg/mL (≈ 1.03 µM) | 6.25 µg/mL (≈ 16.1 µM) | 3.12 µg/mL (≈ 8.03 µM) | – | 0.2 µg/mL (≈ 0.515 µM) | <10^2 CFU/ml | – | –
